US9783532B2, “Molecules having certain pesticidal utilities, and intermediates, compositions, and processes related thereto” (Dow AgroSciences LLC, priority 2013, dated 2017)
Read-outs that look alike come from different tables or passages of the source.

Experiments:
[1] = tested on: Cabbage Looper (Trichoplusia ni) ("CL"); assay: Bioassay on cabbage looper (CL), 128-well diet tray assay; type: in vivo; settings: for mortality at 50 µg/cm2: 168 h, 50 μg/cm^2 on artificial diet, second instar CL larvae, 25° C., five to seven days, average of eight wells, read-out: CL % Control (or Mortality) rating; for pest or weed control at 50 µg/cm2: activity rating class, read-out: CL (Biological Results, Insect species)
Procedure: (§1) Certain molecules disclosed in this document were tested against BAW and CEW using procedures described in the following examples. In the reporting of the results, the “BAW & CL Rating Table” was used (See Table Section). BIOASSAYS ON BAW
Bioassays on CL were conducted using a 128-well diet tray assay. one to five second instar CL larvae were placed in each well (3 mL) of the diet tray that had been previously filled with 1 mL of artificial diet to which 50 μg/cm^2 of the test compound (dissolved in 50 μL of 90:10 acetone-water mixture) had been applied (to each of eight wells) and then allowed to dry. Trays were covered with a clear self-adhesive cover and held at 25° C., 14:10 light-dark for five to seven days. Percent mortality was recorded for the larvae in each well; activity in the eight wells was then averaged. The results are indicated in the table entitled “Table ABC: Biological Results” (See Table Section).

[2] = tested on: Beet Armyworm (Spodoptera exigua) ("BAW"); assay: Bioassay on beet armyworm (BAW), 128-well diet tray assay; type: in vivo; settings: for mortality at 50 µg/cm2: 168 h, 50 μg/cm^2 on artificial diet, second instar BAW larvae, 25° C., five to seven days, average of eight wells, read-out: BAW % Control (or Mortality) rating; for pest or weed control at 50 µg/cm2: activity rating class, read-out: BAW (Biological Results, Insect species)
Procedure: as §1
Bioassays on BAW were conducted using a 128-well diet tray assay. one to five second instar BAW larvae were placed in each well (3 mL) of the diet tray that had been previously filled with 1 mL of artificial diet to which 50 μg/cm^2 of the test compound (dissolved in 50 μL of 90:10 acetone-water mixture) had been applied (to each of eight wells) and then allowed to dry. Trays were covered with a clear self-adhesive cover and held at 25° C., 14:10 light-dark for five to seven days. Percent mortality was recorded for the larvae in each well; activity in the eight wells was then averaged. The results are indicated in the table entitled “Table ABC: Biological Results” (See Table Section).

SMILES: CC(Cc1ccc(-c2ncn(-c3ccc(OC(F)(F)F)cc3)n2)cc1)NC(=O)NC(=S)Nc1ccccc1C(C)C (stereo not drawn) [F4, N-[2-(propan-2-yl)phenyl]-N′-[1-(4-{1-[4-(trifluoromethoxy)phenyl]-1H-1,2,4-triazol-3-yl}phenyl)propan-2-yl]dicarbonimidothioic diamide]
- mortality at 50 µg/cm2 [1]: 50 to 100%
- mortality at 50 µg/cm2 [2]: 50 to 100%

SMILES: CCc1ccccc1N1C(=O)CS/C1=N\C(=O)NCc1cccc(-c2ncn(-c3ccc(OC(F)(F)F)cc3)n2)c1 [FB29, (Z)-1-(3-(2-ethylphenyl)-4-oxothiazolidin-2-ylidene)-3-(3-(1-(4-(trifluoromethoxy)phenyl)-1H-1,2,4-triazol-3-yl)benzyl)urea]
- pest or weed control at 50 µg/cm2 ([1]; Table ABC (FB)): 50 to 100%
- pest or weed control at 50 µg/cm2 ([2]; Table ABC (FB)): 50 to 100%

SMILES: Cc1ccccc1NC(=S)NC(=O)NCCCCc1ccc(-c2ncn(-c3ccc(OC(F)(F)F)cc3)n2)cc1 [PC144, 1-(o-tolylcarbamothioyl)-3-[4-[4-[1-[4-(trifluoromethoxy)phenyl]-1H-1,2,4-triazol-3-yl]phenyl]butyl]urea]
- pest or weed control at 50 µg/cm2 ([1]; Table ABC (PC)): 50 to 100%
- pest or weed control at 50 µg/cm2 ([2]; Table ABC (PC)): 50 to 100%

SMILES: Cc1ccc(C(C)C)c(N2C(=O)C(C)(C)S/C2=N\C(=O)NCCc2ccc(-c3ncn(-c4ccc(OC(F)(F)F)cc4)n3)cc2)c1 [FB68, (Z)-1-(3-(2-isopropyl-5-methylphenyl)-5,5-dimethyl-4-oxothiazolidin-2-ylidene)-3-(4-(1-(4-(trifluoromethoxy)phenyl)-1H-1,2,4-triazol-3-yl)phenethyl)urea]
- pest or weed control at 50 µg/cm2 ([1]; Table ABC (FB)): 50 to 100%
- pest or weed control at 50 µg/cm2 ([2]; Table ABC (FB)): 50 to 100%

SMILES: CCc1ccccc1N1C(=O)CS/C1=N\C(=O)NCCc1cccc(-c2ncn(-c3ccc(OC(F)(F)F)cc3)n2)c1 [P75, (Z)-1-(3-(2-ethylphenyl)-4-oxothiazolidin-2-ylidene)-3-(3-(1-(4-(trifluoromethoxy)phenyl)-1H-1,2,4-triazol-3-yl)phenethyl)urea]
- mortality at 50 µg/cm2 [1]: 50 to 100%
- mortality at 50 µg/cm2 [2]: 50 to 100%

SMILES: CCn1s/c(=N\C(=O)NCCc2ccc(-c3ncn(-c4ccc(OC(F)(F)F)cc4)n3)cc2)n(-c2ccccc2C(C)C)c1=O [FB14]
- pest or weed control at 50 µg/cm2 ([1]; Table ABC (FB)): 50 to 100%
- pest or weed control at 50 µg/cm2 ([2]; Table ABC (FB)): 50 to 100%

SMILES: Cc1ccc(C(C)C)c(NC(=S)NC(=O)NCCC#Cc2ccc(-c3ncn(-c4ccc(OC(F)(F)F)cc4)n3)cc2)c1 [PC160, 1-[(2-isopropyl-5-methyl-phenyl)carbamothioyl]-3-[4-[4-[1-[4-(trifluoromethoxy)phenyl]-1H-1,2,4-triazol-3-yl]phenyl]but-3-ynyl]urea]
- pest or weed control at 50 µg/cm2 ([1]; Table ABC (PC)): 50 to 100%
- pest or weed control at 50 µg/cm2 ([2]; Table ABC (PC)): 50 to 100%

SMILES: CCc1ccccc1NC(=S)NC(=O)NCc1cccc(-c2ncn(-c3ccc(OC(F)(F)F)cc3)n2)c1 [FB20, 1-[(2-ethylphenyl)carbamothioyl]-3-[[3-[1-[4-(trifluoromethoxy)phenyl]-1H-1,2,4-triazol-3-yl]phenyl]methyl]urea]
- pest or weed control at 50 µg/cm2 ([1]; Table ABC (FB)): 50 to 100%
- pest or weed control at 50 µg/cm2 ([2]; Table ABC (FB)): 50 to 100%

SMILES: COc1ccc(N2C(=O)CS/C2=N\C(=O)NCCCCc2cccc(-c3ncn(-c4ccc(OC(F)(F)F)cc4)n3)c2)c(C)c1 [FB38, (Z)-1-(3-(4-methoxy-2-methylphenyl)-4-oxothiazolidin-2-ylidene)-3-(4-(3-(1-(4-(trifluoromethoxy)phenyl)-1H-1,2,4-triazol-3-yl)phenyl)butyl)urea]
- pest or weed control at 50 µg/cm2 ([1]; Table ABC (FB)): 50 to 100%
- pest or weed control at 50 µg/cm2 ([2]; Table ABC (FB)): 0 to 50%

SMILES: Cc1ccc(C(C)C)c(N2C(=O)CS/C2=N\C(=O)NCCc2ccc(-c3ncn(-c4ccc(OC(F)(F)F)cc4)n3)cc2C)c1 [FB3, (Z)-1-(3-(2-isopropyl-5-methylphenyl)-4-oxothiazolidin-2-ylidene)-3-(2-methyl-4-(1-(4-(trifluoromethoxy)phenyl)-1H-1,2,4-triazol-3-yl)phenethyl)urea]
- pest or weed control at 50 µg/cm2 ([1]; Table ABC (FB)): 50 to 100%
- pest or weed control at 50 µg/cm2 ([2]; Table ABC (FB)): 50 to 100%

SMILES: CCc1ccccc1N1C(=O)CS/C1=N\C(=O)NCCc1ccc(-c2ncn(-c3ccc(OC(F)(F)F)cc3)n2)cc1C [FB6, (Z)-1-(3-(2-ethylphenyl)-4-oxothiazolidin-2-ylidene)-3-(2-methyl-4-(1-(4-(trifluoromethoxy)phenyl)-1H-1,2,4-triazol-3-yl)phenethyl)urea]
- pest or weed control at 50 µg/cm2 ([1]; Table ABC (FB)): 50 to 100%
- pest or weed control at 50 µg/cm2 ([2]; Table ABC (FB)): 50 to 100%

SMILES: COc1ccc(NC(=S)NC(=O)NC2CC2c2ccc(-c3ncn(-c4ccc(OC(F)(F)F)cc4)n3)cc2)c(C)c1 (stereo not drawn) [F26]
- mortality at 50 µg/cm2 [1]: 50 to 100%
- mortality at 50 µg/cm2 [2]: 50 to 100%

SMILES: CCCc1ccc(C)cc1N1C(=O)CS/C1=N\C(=O)NCCc1cccc(-c2ncn(-c3ccc(OC(F)(F)F)cc3)n2)c1 [P80, (Z)-1-(3-(5-methyl-2-propylphenyl)-4-oxothiazolidin-2-ylidene)-3-(3-(1-(4-(trifluoromethoxy)phenyl)-1H-1,2,4-triazol-3-yl)phenethyl)urea]
- mortality at 50 µg/cm2 [1]: 50 to 100%
- mortality at 50 µg/cm2 [2]: 50 to 100%

SMILES: Cc1ccc(C(C)C)c(NC(=S)NC(=O)NCc2ccc(-c3ncn(-c4ccc(OC(F)(F)C(F)(F)F)cc4)n3)cc2)c1 [F16]
- mortality at 50 µg/cm2 [1]: 50 to 100%
- mortality at 50 µg/cm2 [2]: 50 to 100%

SMILES: Cc1ccc(N2C(=O)CS/C2=N\C(=O)NCc2ccc(-c3ncn(-c4ccc(C(F)(F)F)cc4)n3)cc2)c(C(C)C)c1 [P15, (Z)-1-(3-(2-isopropyl-4-methylphenyl)-4-oxothiazolidin-2-ylidene)-3-(4-(1-(4-(trifluoromethyl)phenyl)-1H-1,2,4-triazol-3-yl)benzyl)urea]
- mortality at 50 µg/cm2 [1]: 50 to 100%
- mortality at 50 µg/cm2 [2]: 50 to 100%

SMILES: Cc1ccc(C(C)C)c(N2CC(C)CS/C2=N\C(=O)NCCc2ccc(-c3ncn(-c4ccc(OC(F)(F)F)cc4)n3)cc2)c1 (stereo not drawn) [P64]
- mortality at 50 µg/cm2 [1]: 50 to 100%
- mortality at 50 µg/cm2 [2]: 50 to 100%

SMILES: Cc1ccc(N2C(=O)CS/C2=N\C(=O)NCc2cccc(-c3ncn(-c4ccc(OC(F)(F)F)cc4)n3)c2)c(C(C)C)c1 [FB32, (Z)-1-(3-(2-isopropyl-4-methylphenyl)-4-oxothiazolidin-2-ylidene)-3-(3-(1-(4-(trifluoromethoxy)phenyl)-1H-1,2,4-triazol-3-yl)benzyl)urea]
- pest or weed control at 50 µg/cm2 ([1]; Table ABC (FB)): 50 to 100%
- pest or weed control at 50 µg/cm2 ([2]; Table ABC (FB)): 50 to 100%

SMILES: CC(C)c1cc(F)ccc1N1C(=O)CS/C1=N\C(=O)NCCc1cccc(-c2ncn(-c3ccc(OC(F)(F)F)cc3)n2)c1 [P85, (Z)-1-(3-(4-fluoro-2-isopropylphenyl)-4-oxothiazolidin-2-ylidene)-3-(3-(1-(4-(trifluoromethoxy)phenyl)-1H-1,2,4-triazol-3-yl)phenethyl)urea]
- mortality at 50 µg/cm2 [1]: 50 to 100%
- mortality at 50 µg/cm2 [2]: 50 to 100%

SMILES: CCc1ccc(C)cc1N1/C(=N/C(=O)NCCc2ccc(-c3ncn(-c4ccc(OC(F)(F)F)cc4)n3)cc2)SCC1C (stereo not drawn) [FB55, (Z)-1-(3-(2-ethyl-5-methylphenyl)-4-methylthiazolidin-2-ylidene)-3-(4-(1-(4-(trifluoromethoxy)phenyl)-1H-1,2,4-triazol-3-yl)phenethyl)urea]
- pest or weed control at 50 µg/cm2 ([1]; Table ABC (FB)): 50 to 100%
- pest or weed control at 50 µg/cm2 ([2]; Table ABC (FB)): 50 to 100%

SMILES: CC(C)c1ccccc1N1C(=O)CS/C1=N\C(=O)NCc1ccc(-c2ncn(-c3ccc(C(F)(F)F)cc3)n2)cc1 [P14, (Z)-1-(3-(2-isopropylphenyl)-4-oxothiazolidin-2-ylidene)-3-(4-(1-(4-(trifluoromethyl)phenyl)-1H-1,2,4-triazol-3-yl)benzyl)urea]
- mortality at 50 µg/cm2 [1]: 50 to 100%
- mortality at 50 µg/cm2 [2]: 50 to 100%

SMILES: CCc1ccccc1N1C(=O)CS/C1=N\C(=O)NCCCCc1cccc(-c2ncn(-c3ccc(OC(F)(F)F)cc3)n2)c1 [P171, (Z)-1-(3-(2-ethylphenyl)-4-oxothiazolidin-2-ylidene)-3-(4-(3-(1-(4-(trifluoromethoxy)phenyl)-1H-1,2,4-triazol-3-yl)phenyl)butyl)urea]
- mortality at 50 µg/cm2 [1]: 50 to 100%
- mortality at 50 µg/cm2 [2]: 50 to 100%

SMILES: CC(C)c1ccccc1NC(=S)NC(=O)NCCCCc1cccc(-c2ncn(-c3ccc(OC(F)(F)F)cc3)n2)c1 [PC172, 1-[(2-isopropylphenyl)carbamothioyl]-3-[4-[3-[1-[4-(trifluoromethoxy)phenyl]-1H-1,2,4-triazol-3-yl]phenyl]butyl]urea]
- pest or weed control at 50 µg/cm2 ([1]; Table ABC (PC)): 50 to 100%
- pest or weed control at 50 µg/cm2 ([2]; Table ABC (PC)): 50 to 100%

SMILES: CCc1cccc(C)c1NC(=S)NC(=O)NCCCc1ccc(-c2ncn(-c3ccc(OC(F)(F)F)cc3)n2)cc1 [PC101, 1-[(2-ethyl-6-methyl-phenyl)carbamothioyl]-3-[3-[4-[1-[4-(trifluoromethoxy)phenyl]-1H-1,2,4-triazol-3-yl]phenyl]propyl]urea]
- pest or weed control at 50 µg/cm2 ([1]; Table ABC (PC)): 50 to 100%
- pest or weed control at 50 µg/cm2 ([2]; Table ABC (PC)): 50 to 100%

SMILES: CCCc1ccc(C)cc1N1C(=O)CS/C1=N\C(=O)NCCCc1cccc(-c2ncn(-c3ccc(OC(F)(F)F)cc3)n2)c1 [P125, (Z)-1-(3-(5-methyl-2-propylphenyl)-4-oxothiazolidin-2-ylidene)-3-(3-(3-(1-(4-(trifluoromethoxy)phenyl)-1H-1,2,4-triazol-3-yl)phenyl)propyl)urea]
- mortality at 50 µg/cm2 [1]: 50 to 100%
- mortality at 50 µg/cm2 [2]: 50 to 100%
